# According to patent US5554653A, “Inhibitors of HIV protease useful for the treatment of AIDS” (Eli Lilly and Company, priority 1992, dated 1996):
# Target: T1, HIV-1 protease (Human immunodeficiency virus type 1 group M subtype B, UniProt P04585)
# T1 construct: Purified HIV-1 protease was obtained as described above; made in house; host or cells: E. coli K12 L507/pHP10D (NRRL B-18560)
# Assay: biochemical
# Type: biochemical
# Details: for IC50: read-out: Fluorescence Assay IC50 (converted)
# Description: C. Preparation of Protease Fraction
# A culture of E. coli K12 L507/pHP10D was grown to mid-log phase at 32° C. in LB media containing 12.5 μg/ml tetracycline. The cultivation temperature was quickly elevated to 40° C. to induce gene expression, and the cells were allowed to grow for 2.5 hours at this temperature before the culture was quickly chilled on ice. The cells were centrifuged and the cell pellet was resuspended in 20 mL 50 mmol MES buffer (pH 6.0) containing 1 mmol EDTA, 1 mmol DTT, 1 mmol PMSF and 10% glycerol ("Buffer A"). Cells were lysed by sonication using a Fischer Model 300 Dismembrator and a microtip probe. Following centrifugation at 27,000×g, the supernatant was diluted to a total volume of 60 mL with Buffer A and loaded onto a 2.0×19 cm QAE-Sepharose column (1 mL/min, 4° C.), that had been equilibrated in Buffer A. The column was washed isocratically for 180 min and then eluted with a gradient eluent of 0-1.0M sodium chloride in Buffer A over 120 min. Enzymatic activity was measured by HPLC using the synthetic peptide SQNYPIV as described in Margolin et al., Biochem. Biophys. Res. Commun., 167, 554-560 (1990); the production of the p1 peptide (SQNY) was measured.
# The active fractions were combined, made 1.2M in ammonium sulfate, and applied to a 2.0×18 cm hexyl agarose column that had been equilibrated in Buffer A containing 1.2M ammonium sulfate. The sample was loaded at a flow rate of 1 mL/min at 4° C., washed with the equilibration buffer for 240 min (1 mL/min) and then eluted using a reverse linear gradient of 1.2-0M ammonium sulfate in Buffer A for 120 min at the same flow rate. The column was then washed isocratically in Buffer A for 120 min.
# The active fractions were combined, concentrated to 10 mL using an Amicon stirred cell with a YM-10 membrane and then applied to a MonoS cation exchange column (1.0×10 cm) that had been equilibrated in Buffer A. The sample was loaded at a flow rate of 1 mL/min at 25° C. After washing isocratically for 30 min, the protease was eluted using a linear gradient of 0-0.45M sodium chloride in Buffer A over 40 min. The column was washed isocratically in Buffer A containing 0.45M sodium chloride for 30 min.
# The active fractions were combined and concentrated to 200 μL using an Amicon stirred cell and a YM-10 membrane and then the protease was applied to a Superose 6 size exclusion column equilibrated in Buffer A containing 0.1M sodium chloride.
# The purified peptide was labeled with a fluorescent marker at the C-terminal end for use in the Pandex assay. N^α -Biotin-[…]OH SEQ ID NO:3. (1.206 g, 0.936 mmol) was dissolved in 100 mL of 0.1M sodium borate, pH 9.5. Then, a solution of 3 g (7.7 mmol) of fluorescein isothiocyanate in 15 mL dimethyl sulfoxide was added to the reaction mixture in 10 equal portions over two hours. The resulting mixture was allowed to react for one hour after the final addition. The solution was adjusted to pH 3 using 5N hydrochloric acid, resulting in the formation of a precipitate which was removed by centrifugation.
# E. Fluorescence HIV-1 Protease Inhibitor Assay
# The following buffers and solutions are used in the Fluorescence HIV-1 Protease Inhibitor Assay:
# MES-ALB Buffer: 0.05M 4-morpholineethane
# Avidin Coated 0.1% solution of Fluoricon
# Beads Solution: Avidin Assay Particles
# (Avidin conjugated to solid
# polystyrene beads, 0.6-0.8
# microns in diameter in TBSA
# 27 IU/mL of purified HIV-1
# protease in MES-ALB buffer
# (1 IU equals the amount of
# enzyme required to hydrolyze
# 1 μmole of substrate per
# To each well of a round bottom, 96-well plate is added 20 μL of the Enzyme Solution followed by 10 μL of the compound to be evaluated in a 20% aqueous dimethylsulfoxide solution. Purified HIV-1 protease was obtained as described above.
IC50,Structure (SMILES),further results
1.1 nM,"CC(C)(C)NC(=O)c1ccccc1C[C@@H](O)[C@H](Cc1ccccc1)NC(=O)[C@@H](CSc1ccc2ccccc2c1)NS(C)(=O)=O [Example 17A, [2R-(2R*, 3S*, 6S*)]-N-t-Butyl-2-[2-hydroxy-3-phenylmethyl-4-aza-5-oxo-6-N (methylsulfonyl)amine-7-naphth-2-ylthio]heptyl benzamide]",
0.191 nM,"CC(C)(C)NC(=O)c1ccccc1C[C@@H](O)[C@H](Cc1ccccc1)NC(=O)[C@@H](CS(=O)(=O)c1ccc2ccccc2c1)NS(C)(=O)=O [Example 17B, [2R-(2R*,3S*,6S*)]-N-t-Butyl-2-[2-hydroxy-3-phenylmethyl-4-aza-5-oxo-6-N(methylsulfonyl)amino-7-naphth-2-ylsulfonyl]heptyl benzamide]",
12.9 nM,"CC(=O)N[C@H](CSCc1ccccc1)C(=O)N[C@@H](Cc1ccccc1)[C@H](O)Cc1ccccc1C(=O)NC(C)(C)C [Example 18A, [2R-(2R*, 3S*, 6S*)]-N-t-Butyl-2-[2-hydroxy-3-phenylmethyl-4-aza-5-oxo-6-N (ethanoyl)amino-7-benzylthio]heptyl benzamide]",
55.9 nM,"CC(=O)N[C@H](CS(=O)(=O)Cc1ccccc1)C(=O)N[C@@H](Cc1ccccc1)[C@H](O)Cc1ccccc1C(=O)NC(C)(C)C [Example 18B, [2R-(2R*, 3S*, 6S*)]-N-t-Butyl-2-[2-hydroxy-3-phenylmethyl-4-aza-5-oxo-6-N(ethanoyl)amino-7-benzylsulfonyl]heptyl benzamide]",
,"CC(C)(C)NC(=O)c1ccccc1C[C@@H](O)[C@H](Cc1ccccc1)NC(=O)[C@@H](CSCc1ccccc1)NC(=O)OC(C)(C)C [Example 19A, [2R-(2R*, 3S*, 6S*)]-N-t-Butyl-2-[2-hydroxy-3-phenylmethyl-4-aza-5-oxo-6-N (t-butoxycarbonyl)amino-7-benzylthio]heptyl benzamide]",IC3 (read-out: Fluorescence Assay IC3): 1 µg/mL
,"CC(C)(C)NC(=O)c1ccccc1C[C@@H](O)[C@H](Cc1ccccc1)NC(=O)[C@H](N)CSCc1ccccc1 [Example 19B, [2R-(2R*, 3S*, 6S*)]-N-t-Butyl-2-[2-hydroxy-3-phenylmethyl-4-aza-5-oxo-6-amino-7-benzylthio]heptyl benzamide]",IC16 (read-out: Fluorescence Assay IC16): 1 µg/mL
3.6 nM,"CC(C)(C)NC(=O)c1ccccc1C[C@@H](O)[C@H](Cc1ccccc1)NC(=O)[C@@H](CSCc1ccccc1)NS(C)(=O)=O [Example 19C, [2R-(2R*,3S*,6S*)]-N-t-Butyl-2-[2-hydroxy-3-phenylmethylyl-4-aza-5-oxo-6-N(methylsulfonyl)amino-7-benzylthio]heptyl benzamide]",
2.23 nM,"CC(C)(C)NC(=O)c1ccccc1C[C@@H](O)[C@H](Cc1ccccc1)NC(=O)[C@@H](C[S+]([O-])Cc1ccccc1)NS(C)(=O)=O (stereo partly drawn) [Example 19D, [2R-(2R*,3S*,6S*)]-N-t-Butyl-2-[2-hydroxy-3-phenylmethyl-4-aza-5-oxo-6-N(methylsulfonyl)amine-7-benzylsulfinyl]heptyl benzamide]",
4.66 nM,"CC(C)(C)NC(=O)c1ccccc1C[C@@H](O)[C@H](Cc1ccccc1)NC(=O)[C@@H](CS(=O)(=O)Cc1ccccc1)NS(C)(=O)=O [Example 19E, [2R-(2R*,3S*,6S*)]-N-t-Butyl-2-[2-hydroxy-3-phenylmethyl-4-aza-5-oxo-6-N(methylsulfonyl)amino-7-benzylsulfonyl]heptyl benzamide]",
,"CC(=O)N[C@@H](CSc1ccccc1)C(=O)N[C@@H](Cc1ccccc1)[C@H](O)Cc1ccccc1C(=O)NC(C)(C)C [Example 20B, [2R-(2R*,3S*,6R*)]-N-t-Butyl-2-[2-hydroxy-3-phenylmethyl-4-aza-5-oxo-6-N(ethanoyl)amino-7-phenylthio]heptyl benzamide]",IC8 (read-out: Fluorescence Assay IC8): 1 µg/mL
4.88 nM,"CC(=O)N[C@H](CS(=O)(=O)c1ccccc1)C(=O)N[C@@H](Cc1ccccc1)[C@H](O)Cc1ccccc1C(=O)NC(C)(C)C [Example 20C, [2R-(2R*,3S*,6S*)]-N-t-Butyl-2-[2-hydroxy-3-phenylmethyl-4-aza-5-oxo-6-N(ethanoyl)amino-7-phenylsulfonyl]heptyl benzamide]",
